{"source": "patent US20110046724A1", "about": "“Expansible Biocompatible Coats Comprising a Biologically Active Substance” (Avidal Vascular GMBH, priority 2008, published 2011)", "key": {"[1]": {"tested_on": "human endothelial progenitor cells (EPC)", "test": "short-term application of paclitaxel to human endothelial progenitor cells", "assay_type": "cell-based", "conditions": "effect dose and time dependent", "text": "(§1) This effect is dose and time dependent; rising concentrations in paclitaxel and longer application show higher inhibition of cell proliferation and migration."}, "[2]": {"tested_on": "smooth muscle cells (SCM)", "test": "short-term application of paclitaxel to smooth muscle cells", "assay_type": "cell-based, human", "conditions": "effect dose and time dependent", "text": "as §1"}}}
{"compound": "CC(=O)O[C@H]1C(=O)[C@@]2(C)[C@H]([C@H](OC(=O)c3ccccc3)[C@]3(O)C[C@H](OC(=O)[C@H](O)[C@@H](NC(=O)c4ccccc4)c4ccccc4)C(C)=C1C3(C)C)[C@]1(OC(C)=O)CO[C@@H]1C[C@@H]2O", "note": "[paclitaxel]", "values": [{"measurement": "apoptosis, inhibition of cell proliferation and migration", "setting": "[1]", "value": "leads to apoptosis and therefore inhibition of cell proliferation and migration"}, {"measurement": "apoptosis, inhibition of cell proliferation and migration", "setting": "[2]", "value": "leads to apoptosis and therefore inhibition of cell proliferation and migration"}]}
